Measurements: patent publication US7141583B2, “Oxazolidinone derivatives with antibiotic activity” (AstraZeneca AB, priority 2000, dated 2006)
In brackets after ≈: the same amount, converted by molar mass.

What was measured:
[1] = tested on: Staphylococcus aureus Oxford; assay: MIC by agar-dilution, Staphylococcus aureus Oxford; type: cell-based; conditions: 37° C., 24 hours
Procedure: (§1) The following results were obtained on a standard in-vitro test system. The activity is described in terms of the minimum inhibitory concentration (MIC) determined by the agar-dilution technique with an inoculum size of 10^4 CFU/spot. Typically, compounds are active in the range 0.01 to 256 μg/ml.
(§2) Staphylococci were tested on agar, using an inoculum of 10^4 CFU/spot and an incubation temperature of 37° C. for 24 hours—standard test conditions for the expression of methicillin resistance.

[2] = tested on: Staphylococcus aureus Novb. Res (Novobiocin resistant); assay: MIC by agar-dilution, Staphylococcus aureus Novb. Res; type: cell-based; conditions: 37° C., 24 hours
Procedure: as §1, §2

[3] = tested on: Staphylococcus aureus MRQR (methicillin and quinolone resistant); assay: MIC by agar-dilution, Staphylococcus aureus MRQR; type: cell-based; conditions: 37° C., 24 hours
Procedure: as §1, §2

[4] = tested on: Coagulase Negative Staphylococci MS (methicillin sensitive); assay: MIC by agar-dilution, Coagulase Negative Staphylococci MS; type: cell-based; conditions: 37° C., 24 hours
Procedure: as §1, §2

[5] = tested on: Coagulase Negative Staphylococci MR (methicillin resistant); assay: MIC by agar-dilution, Coagulase Negative Staphylococci MR; type: cell-based; conditions: 37° C., 24 hours
Procedure: as §1, §2

[6] = tested on: Streptococcus pyogenes C203; assay: MIC by agar-dilution, Streptococcus pyogenes C203; type: cell-based; conditions: agar with 5% defibrinated horse blood, 5% carbon dioxide, 48 hours
Procedure: (§3) The following results were obtained on a standard in-vitro test system. The activity is described in terms of the minimum inhibitory concentration (MIC) determined by the agar-dilution technique with an inoculum size of 10^4 CFU/spot. Typically, compounds are active in the range 0.01 to 256 μg/ml. Streptococci and enterococci were tested on agar supplemented with 5% defibrinated horse blood, an inoculum of 10^4 CFU/spot and an incubation temperature of 37° C. in an atmosphere of 5% carbon dioxide for 48 hours—blood is required for the growth of some of the test organisms. Fastidious Gram negative organisms were tested in Mueller-Hinton broth, supplemented with hemin and NAD, grown aerobically for 24 hours at 37° C., and with an innoculum of 5×10^4 CFU/well.

Enterococcus faecalis = assay: MIC by agar-dilution, Enterococcus faecalis; type: cell-based; conditions: agar with 5% defibrinated horse blood, 5% carbon dioxide, 48 hours
Procedure: as §3

Bacillus subtilis = assay: MIC by agar-dilution, Bacillus subtilis; type: cell-based
Procedure: as §1

[7] = tested on: Haemophilus influenzae ARC446; assay: MIC, Haemophilus influenzae ARC446 (Mueller-Hinton broth); type: cell-based; conditions: Mueller-Hinton broth with hemin and NAD, 24 hours, 37° C.
Procedure: as §3

[8] = tested on: Moraxella catarrhalis ARC445; assay: MIC, Moraxella catarrhalis ARC445 (Mueller-Hinton broth); type: cell-based; conditions: Mueller-Hinton broth with hemin and NAD, 24 hours, 37° C.
Procedure: as §3

melting point [°C]	MIC [1] [µg/mL]	MIC [2] [µg/mL]	MIC [3] [µg/mL]	MIC [4] [µg/mL]	MIC [5] [µg/mL]	MIC [6] [µg/mL]	MIC (Enterococcus faecalis) [µg/mL]	MIC (Bacillus subtilis) [µg/mL]	MIC [7] [µg/mL]	MIC [8] [µg/mL]	SMILES
140 to 142	–	–	–	–	–	–	–	–	–	–	CC(C)(C)c1ccc(N2C[C@H](Cn3ccnn3)OC2=O)cc1 [Example 41, (5R)-3-(4-t-Butylphenyl)-5-(1,2,3-triazol-1-ylmethyl)oxazolidin-2-one]
72 to 73	–	–	–	–	–	–	–	–	–	–	CSc1ccc(N2C[C@H](Cn3cccn3)OC2=O)cc1 [Example 43, (5R)-3-(4-Methylthiophenyl)-5-(pyrazol-1-ylmethyl)oxazolidin-2-one]
–	0.125 (≈ 0.305 µM)	0.25 (≈ 0.609 µM)	0.25 (≈ 0.609 µM)	0.06 (≈ 0.146 µM)	0.13 (≈ 0.317 µM)	0.25 (≈ 0.609 µM)	0.25 (≈ 0.609 µM)	0.25 (≈ 0.609 µM)	2 (≈ 4.87 µM)	2 (≈ 4.87 µM)	O=C1O[C@@H](Cn2ccnn2)CN1c1cc(F)c(C2=CCS(=O)(=O)CC2)c(F)c1 [Example 44a, (5R)-3-(3,5-Difluoro-4-(3,6-dihydro-1,1-dioxo-2H-thiopyran-4-yl)phenyl)-5-(1,2,3-triazol-1-ylmethyl)oxazolidin-2-one]
